The record followed here is ChEMBL document CHEMBL5154749 (Eur J Med Chem, 2022).

Assay [1] concerns the target Serine/threonine-protein kinase ATR (Homo sapiens, UniProt Q13535). The assay is described as follows: Inhibition of human recombinant full length ATR using GST-cMyc-p53 as substrate incubated for 40 mins in presence of ATP by HTRF assay.
The subject of the next assay is HT-29. As to the kind of experiment: Cytotoxicity against ATM proficient human HT-29 cells assessed as reduction in cell viability incubated for 72 hrs by MTT assay. It is filed as functional, cell-based. The following applies: HT-29, 72 h. A general note: Formazan colour is commonly taken as a measure of viable cells.

In general, IC50 refers to the concentration that gives 50% inhibition.

Chain of Serine/threonine-protein kinase ATR (Q13535 whole entry): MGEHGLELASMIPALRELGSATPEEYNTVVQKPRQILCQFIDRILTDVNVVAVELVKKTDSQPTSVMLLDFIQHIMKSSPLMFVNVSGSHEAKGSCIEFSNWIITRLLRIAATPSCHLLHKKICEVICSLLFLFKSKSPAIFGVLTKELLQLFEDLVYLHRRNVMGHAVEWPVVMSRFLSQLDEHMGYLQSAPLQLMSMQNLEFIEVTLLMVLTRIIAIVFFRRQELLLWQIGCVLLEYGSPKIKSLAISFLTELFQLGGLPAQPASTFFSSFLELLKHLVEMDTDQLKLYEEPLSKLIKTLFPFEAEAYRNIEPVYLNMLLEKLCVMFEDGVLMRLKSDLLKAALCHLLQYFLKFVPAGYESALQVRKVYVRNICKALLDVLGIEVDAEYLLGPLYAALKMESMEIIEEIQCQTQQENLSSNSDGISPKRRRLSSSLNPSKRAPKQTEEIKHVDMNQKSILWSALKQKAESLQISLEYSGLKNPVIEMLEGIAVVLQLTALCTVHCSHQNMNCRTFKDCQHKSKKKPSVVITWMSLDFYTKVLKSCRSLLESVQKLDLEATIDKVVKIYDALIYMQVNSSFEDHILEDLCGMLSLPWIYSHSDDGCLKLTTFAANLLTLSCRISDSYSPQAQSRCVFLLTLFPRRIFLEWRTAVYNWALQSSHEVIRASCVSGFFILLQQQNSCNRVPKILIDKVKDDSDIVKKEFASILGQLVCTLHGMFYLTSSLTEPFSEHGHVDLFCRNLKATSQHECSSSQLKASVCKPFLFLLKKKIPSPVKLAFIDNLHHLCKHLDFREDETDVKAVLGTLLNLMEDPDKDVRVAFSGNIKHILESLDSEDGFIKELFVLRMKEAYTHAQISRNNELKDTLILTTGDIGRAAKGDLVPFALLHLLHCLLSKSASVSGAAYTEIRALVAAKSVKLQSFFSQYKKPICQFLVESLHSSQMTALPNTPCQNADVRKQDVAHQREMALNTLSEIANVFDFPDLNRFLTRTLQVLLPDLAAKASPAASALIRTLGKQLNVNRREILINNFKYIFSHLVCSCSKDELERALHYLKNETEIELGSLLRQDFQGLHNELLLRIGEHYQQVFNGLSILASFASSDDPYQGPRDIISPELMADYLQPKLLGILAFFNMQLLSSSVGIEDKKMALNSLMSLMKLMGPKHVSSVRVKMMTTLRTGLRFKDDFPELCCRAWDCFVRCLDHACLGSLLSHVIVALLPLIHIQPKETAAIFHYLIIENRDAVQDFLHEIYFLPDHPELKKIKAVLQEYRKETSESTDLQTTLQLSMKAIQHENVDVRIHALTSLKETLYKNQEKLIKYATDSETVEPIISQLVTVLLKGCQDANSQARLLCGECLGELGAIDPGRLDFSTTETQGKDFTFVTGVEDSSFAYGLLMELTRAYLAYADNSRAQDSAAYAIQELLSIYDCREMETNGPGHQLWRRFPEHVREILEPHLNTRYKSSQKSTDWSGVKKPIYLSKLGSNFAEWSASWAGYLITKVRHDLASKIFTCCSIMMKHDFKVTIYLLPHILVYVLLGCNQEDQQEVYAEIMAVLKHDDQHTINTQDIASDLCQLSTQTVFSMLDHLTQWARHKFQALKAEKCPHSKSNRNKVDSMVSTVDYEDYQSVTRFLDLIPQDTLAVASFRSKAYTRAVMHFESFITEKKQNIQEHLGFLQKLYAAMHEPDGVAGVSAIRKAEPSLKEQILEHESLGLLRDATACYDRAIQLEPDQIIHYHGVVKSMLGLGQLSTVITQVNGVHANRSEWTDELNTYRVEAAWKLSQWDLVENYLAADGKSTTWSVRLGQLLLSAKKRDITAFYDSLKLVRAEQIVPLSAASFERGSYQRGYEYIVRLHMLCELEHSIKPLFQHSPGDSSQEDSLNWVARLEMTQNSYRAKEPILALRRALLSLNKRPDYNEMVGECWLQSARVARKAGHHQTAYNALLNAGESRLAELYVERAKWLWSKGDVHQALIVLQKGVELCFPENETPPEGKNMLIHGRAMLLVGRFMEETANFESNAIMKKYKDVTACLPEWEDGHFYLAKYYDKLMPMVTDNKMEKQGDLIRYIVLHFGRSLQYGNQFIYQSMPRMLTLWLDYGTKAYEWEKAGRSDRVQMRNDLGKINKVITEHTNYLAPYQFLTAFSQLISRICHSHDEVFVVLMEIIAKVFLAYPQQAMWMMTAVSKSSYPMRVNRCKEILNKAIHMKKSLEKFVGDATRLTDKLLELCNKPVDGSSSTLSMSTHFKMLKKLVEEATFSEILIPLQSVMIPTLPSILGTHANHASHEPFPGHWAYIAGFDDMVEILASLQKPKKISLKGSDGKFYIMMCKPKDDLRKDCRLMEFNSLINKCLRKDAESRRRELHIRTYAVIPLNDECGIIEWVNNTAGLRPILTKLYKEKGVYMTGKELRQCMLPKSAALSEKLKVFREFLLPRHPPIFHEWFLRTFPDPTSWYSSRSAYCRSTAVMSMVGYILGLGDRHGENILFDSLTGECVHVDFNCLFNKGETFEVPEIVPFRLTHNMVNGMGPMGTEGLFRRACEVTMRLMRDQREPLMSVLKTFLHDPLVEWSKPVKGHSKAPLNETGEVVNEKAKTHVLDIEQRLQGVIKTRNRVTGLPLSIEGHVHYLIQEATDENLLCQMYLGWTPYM

As for `Cn1nccc1-c1ccc2nc(-c3cccc4[nH]ccc34)nc(N3CCC[C@@H](N)C3)c2c1`, the IC50 in assay [1] was greater than 10000 nM.

As for `Cc1ncc(-c2ccc3nc(-c4cccc5[nH]ccc45)nc(N4CCOC[C@H]4C)c3c2)s1`, in assay [1], the IC50 was found to be 2440 nM.

In the case of `C[C@@H]1COCCN1c1nc(-c2ccnc3[nH]ccc23)nc2ccc(-c3ccnn3C)cc12`, the IC50 in assay [1] is 115 nM.

As to `C[C@@H]1COCCN1c1nc(-c2c[nH]c3ncc(F)cc23)nc2ccc(-c3ccnn3C)cc12`, the IC50 in assay [1] amounted to 3550 nM.

As to `C[C@@H]1CN(c2nc(-c3cccc4[nH]ccc34)nc3ccc(-c4ccnn4C)cc23)C[C@H](C)O1`, the 50% inhibitory concentration (IC50) in assay [1] was greater than 10000 nM.

Take `CC(C)n1c(=O)n(C)c2cnc3cc(F)c(-c4ccc(OCCCN5CCCCC5)nc4)cc3c21` [AZD-1390]: the IC50 in the assay on HT-29 is greater than 10 µM.

Take `C[C@@H]1COCCN1c1nc(-c2cc(F)cc3[nH]ccc23)nc2ccc(-c3ccnn3C)cc12`: the IC50 in assay [1] stood at 96 nM.

On to `C[C@@H]1COCCN1c1nc(-c2cccc3[nH]ccc23)nc2ccc(-c3ccnn3C3CCCCO3)cc12` (some centres not stated), for which, in assay [1], the half-maximal inhibitory concentration (IC50) was 435 nM.

On to `Cn1nccc1-c1ccc2nc(-c3cccc4[nH]ccc34)nc(N3C4CCC3COC4)c2c1`, for which, in assay [1], the IC50 stood at 25 nM.

Take `C[C@@H]1COCCN1c1nc(-c2cc[nH]n2)nc2ccc(-c3ccnn3C)cc12`: the IC50 in assay [1] was greater than 10000 nM.

Consider `Cn1nccc1-c1ccc2nc(-c3cccc4[nH]ccc34)nc(N3CCC[C@H](N)C3)c2c1`, for which the IC50 in assay [1] was greater than 10000 nM.

In the case of `C[C@@H]1COCCN1c1nc(-c2cnn(C3CCNCC3)c2)nc2ccc(-c3ccnn3C)cc12`, the IC50 in assay [1] was greater than 10000 nM.

On to `Cc1ccc2[nH]ncc2c1-c1nc(N2CCOC[C@H]2C)c2cc(-c3ccnn3C)ccc2n1`, for which, in assay [1], the IC50 is greater than 10000 nM.

As for `C[C@@H]1COCCN1c1nc(-c2c[nH]c3ncccc23)nc2ccc(-c3ccnn3C)cc12`, the IC50 in assay [1] worked out at 3320 nM.

Turning to `Cn1nccc1-c1ccc2nc(-c3cccc4[nH]ccc34)nc(N3CCC(N)C3)c2c1` (configuration not stated), in assay [1], the half-inhibitory concentration (IC50) is greater than 10000 nM.

Take `CC(C)n1nccc1-c1ccc2nc(-c3cccc4[nH]ccc34)nc(N3CCOC[C@H]3C)c2c1`: in assay [1], the IC50 came to 83 nM.

Take `C[C@@H]1COCCN1c1nc(-c2cccc3[nH]ccc23)nc2ccc(-c3ccc(=O)n(C)c3)cc12`: in assay [1], the IC50 is 194 nM.

Consider `C[C@@H]1COCCN1c1nc(-c2cccc3[nH]ccc23)nc2ccc(-c3ccsc3)cc12`, for which the IC50 in assay [1] is 2790 nM.

With `C[C@@H]1COCCN1c1nc(-c2cn[nH]c2)nc2ccc(-c3ccnn3C)cc12`, in assay [1], the half-inhibitory concentration (IC50) is greater than 10000 nM.

As for `C[C@@H]1COCCN1c1nc(-c2cccc3[nH]ccc23)nc2ccc(-c3ccc(N4CCOCC4)nc3)cc12`, in assay [1], the IC50 is 578 nM.

Take `C[C@@H]1COCCN1c1nc(-c2cnc3[nH]ccc3c2)nc2ccc(-c3ccnn3C)cc12`: the IC50 in assay [1] came out at 1770 nM.

In the case of `Cn1nccc1-c1ccc2nc(-c3cccc4[nH]ccc34)nc(N3CCOCC3)c2c1`, in assay [1], the IC50 stood at 89 nM.

Take `Cn1nccc1-c1ccc2nc(-c3cccc4[nH]ccc34)nc(N3CC[C@H](N)C3)c2c1`: the IC50 in assay [1] is greater than 10000 nM.

For `C[C@@H]1COCCN1c1nc(-c2cccc3[nH]ccc23)nc2ccc(-c3ccc(C#N)nc3)cc12`, in assay [1], the IC50 was greater than 10000 nM.

As for `C[C@@H]1COCCN1c1nc(-c2cc(C(F)(F)F)cc3[nH]ccc23)nc2ccc(-c3ccnn3C)cc12`, in assay [1], the IC50 was greater than 10000 nM.

Take `Cn1nccc1-c1ccc2nc(-c3cccc4[nH]ccc34)nc(N3CC4CCC(C3)O4)c2c1`: the concentration for half-maximal inhibition (IC50) in assay [1] was determined as 45 nM.

In the case of `C[C@@H]1COCCN1c1nc(-c2cccc3[nH]ccc23)nc2ccc(-c3ccncc3)cc12`, the half-maximal inhibitory concentration (IC50) in assay [1] stood at 275 nM.

Take `C[C@@H]1COCCN1c1nc(-c2cccc3[nH]ccc23)nc2ccc(-c3cccnc3)cc12`: the IC50 in assay [1] came to 183 nM.

Consider `C[C@@H]1CNCCN1c1nc(-c2cccc3[nH]ccc23)nc2ccc(-c3ccnn3C)cc12`, for which, in assay [1], the IC50 is greater than 10000 nM.

For the compound `C[C@@H]1COCCN1c1nc(-c2cccc3[nH]ccc23)nc2ccc(-c3cccn3C)cc12`, in assay [1], the IC50 worked out at 289 nM.

For the compound `CCOC(c1ccc2nc(-c3cccc4[nH]ccc34)nc(N3CCOC[C@H]3C)c2c1)n1cccn1` (some centres not stated), the IC50 in assay [1] turned out to be 901 nM.

As to `CCn1nccc1-c1ccc2nc(-c3cccc4[nH]ccc34)nc(N3CCOC[C@H]3C)c2c1`, the IC50 in assay [1] was 18 nM.

Regarding `Cn1nccc1-c1ccc2nc(-c3cccc4[nH]ccc34)nc(N3CCN(S(C)(=O)=O)CC3)c2c1`, the IC50 in assay [1] was greater than 10000 nM.

Take `C[C@@H]1COCCN1c1nc(-c2cccc3[nH]ccc23)nc2ccc(-c3ccoc3)cc12`: in assay [1], the IC50 was determined as 2370 nM.

On to `COC(=O)C1CN(c2nc(-c3cccc4[nH]ccc34)nc3ccc(-c4ccnn4C)cc23)CCO1` (configuration not stated), for which, in assay [1], the IC50 is greater than 10000 nM.

For the compound `C[C@@H]1COCCN1c1nc(-c2cccc3[nH]ccc23)nc2ccc(-c3cnn(C)c3)cc12`, the IC50 in assay [1] is 700 nM.

With `Cc1noc(C)c1-c1ccc2nc(-c3cccc4[nH]ccc34)nc(N3CCOC[C@H]3C)c2c1`, in assay [1], the IC50 worked out at 32 nM.

`Cn1nccc1-c1ccc2nc(-c3cccc4[nH]ccc34)nc(N3CC4CC3CO4)c2c1` (configuration not stated): the concentration for half-maximal inhibition (IC50) in assay [1] is 609 nM.

As for `C[C@@H]1COCCN1c1nc(-c2cccc3[nH]ccc23)nc2ccc(-c3cncn3C)cc12`, the IC50 in assay [1] came out at 33 nM.

`C[C@H]1COCCN1c1nc(-c2cccc3[nH]ccc23)nc2ccc(-c3ccnn3C)cc12`: in assay [1], the IC50 was determined as 700 nM.

Regarding `C[C@@H]1COCCN1c1nc(-c2c[nH]c3ccccc23)nc2ccc(-c3ccnn3C)cc12`, the IC50 in assay [1] is 215 nM.

For the compound `C[C@@H]1COCCN1c1nc(-c2cccc3[nH]ccc23)nc2ccc(-c3ccccc3)cc12`, the IC50 in assay [1] was 2980 nM.
